Measurements taken from patent US12685780B2, “Immune inducer containing polynucleotide-peptide conjugate and pharmaceutical composition containing same” (The University of Kitakyushu, priority 2020, dated 2026).
Entries after “also recorded” stand apart in the source; their conditions may differ.

What was measured:
[1] = target: T1, MHC-1 on DC2.4 cells (Mus musculus, UniProt P01901); assay: Competitive inhibition of binding of OVA peptide 1 to MHC-1 on DC2.4 cells; design: species or system murine; settings: peptide 2.5 μg/mL against OVA peptide 1 0.25 μg/mL, on ice 30 minutes
T1 construct: endogenous in cells; host or cells: DC2.4 murine dendritic cell line
T1 sequence (P01901 22-369): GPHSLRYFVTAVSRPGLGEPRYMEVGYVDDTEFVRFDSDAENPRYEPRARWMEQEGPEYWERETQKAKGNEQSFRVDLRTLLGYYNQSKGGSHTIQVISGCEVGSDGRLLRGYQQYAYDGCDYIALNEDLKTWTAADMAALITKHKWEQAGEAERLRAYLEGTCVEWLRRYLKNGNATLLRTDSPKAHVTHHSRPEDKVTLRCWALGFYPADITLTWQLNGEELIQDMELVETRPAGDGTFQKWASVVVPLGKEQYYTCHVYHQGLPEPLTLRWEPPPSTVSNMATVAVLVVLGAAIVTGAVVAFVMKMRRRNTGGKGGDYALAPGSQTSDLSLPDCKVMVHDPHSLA
T1 sequence (P01887 21-119 partner): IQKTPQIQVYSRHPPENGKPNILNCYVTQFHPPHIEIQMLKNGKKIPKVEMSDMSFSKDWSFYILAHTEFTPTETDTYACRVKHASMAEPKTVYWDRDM
Protocol: Murine dendritic cell line, DC2.4 cells, were detached from a dish, and suspended in 1.5 mL tubes at a concentration of 1.5×10^5 cells per […] of PBS.

[2] = tested on: antigen-retaining splenocytes (TRP2-9); assay: Induction of cytotoxic T lymphocytes in mice (in vivo CTL assay, flow cytometry), mTRP2 antigen; design: species or system C57BL/6 mice; settings: antigen TRP2-9
Protocol: A CpG DNA(S)-peptide conjugate as an antigen was intracutaneously administered to mice (C57BL/6 mice (♂, 7 weeks old)). The dose of a CpG DNA(S)-peptide conjugate was 50, 200 or 1000 ng per mouse in terms of peptide (about 0.4, 1.7 or 8.5 μg in terms of CpG30(S)). After one week of administration, splenocytes were isolated from those mice of the same strain not receiving administration, and divided into two aliquots of 2.0×10^7 cells/mL. To one aliquot, a peptide as an antigen was added to a concentration of 10 μg/mL, and the mixture was left to stand for 90 minutes to prepare antigen-retaining splenocytes. The other aliquot of splenocytes with no peptide added was regarded as non-antigen-retaining splenocytes. Both of the antigen-retaining splenocytes and the non-antigen-retaining splenocytes were fluorescently modified with 5,6-carboxyfluorescein succinimidyl ester (CFSE). During this process, the concentration of CFSE was varied such that the fluorescence intensity of the antigen-retaining splenocytes (CFSE: 1 μm) was higher than that of the non-antigen-retaining splenocytes (CFSE: 0.1 μm).
After the lapse of 24 hours from the tail vein administration, splenocytes were isolated from the mice, and evaluated for induced antigen-specific cytotoxic T lymphocyte activity through flow cytometrically quantifying the percentages of antigen-retaining and non-antigen-retaining splenocytes to determine the amount of decrease in antigen-retaining splenocytes. For comparison's sake, other mice were administered PBS (phosphate-buffered saline) instead of a CpG DNA(S)-peptide conjugate, and were regarded as control groups. The control groups were subjected to flow cytometric analysis under the same conditions.
The dose of the conjugates administered was 200 ng per mouse in terms of peptide.
The second administration was performed after 10 days from the first administration. Both of the two doses were 200 ng per mouse in terms of peptide.

C-TRP2-8: CVYDFFVWL (SEQ ID NO: 32); cysteine added to N-terminus of amino acid residues 181 to 188 of mTRP2 (C-TRP2-8)
Decrease of average fluorescence intensity (OVA peptide 1-MHC-1 complexes on DC2.4 cells) [1]: 23%

CpG20(S)a-mTRP2pep9: CpG20(S)a (SEQ ID NO: 1) conjugated to peptide C-TRP2-8 (CVYDFFVWL) (DNA atcgactctcgagcgttctc; oligonucleotide-peptide conjugate; K3)
CTL-inducing ability (decrease in antigen-retaining splenocytes) ([2]; dose not stated): high CTL-inducing ability

C-TRP2-9: CSVYDFFVWL (SEQ ID NO: 31); cysteine added to the N-terminus of TRP2-9 (C-TRP2-9)
Inhibitory activity against binding of OVA peptide 1 to MHC class I molecules [1]: no inhibitory activity was observed

CpG30(S)a-mTRP2pep9: CpG30(S)a (SEQ ID NO: 6, phosphorothioate) conjugated via disulfide spacer to peptide C-TRP2-8 (CVYDFFVWL) (DNA gagcgttctcatcgactctcgagcgttctc; phosphorothioate; disulfide spacer conjugate; K3-30(a))
CTL-inducing ability (decrease in antigen-retaining splenocytes) ([2]; 200 ng per mouse in terms of peptide, intracutaneous, single dose): marked decrease in antigen-retaining splenocytes; also recorded: can induce potent CTL activity
CTL-inducing ability (decrease in antigen-retaining splenocytes) ([2]; dose not stated): high CTL-inducing ability
Dose dependency of CTL-inducing ability ([2]; doses of 50, 200 or 1000 ng per mouse in terms of peptide): dose dependency
